Measured values published in patent publication US4657902A, “Therapeutic use of tin mesoporphyrin” (The Rockefeller University, priority 1985, dated 1987).
Where two headings read alike, the source gives them in different places.

Key:
hepatic heme oxygenase = hepatic heme oxygenase activity in ALA-treated 7 day old rats; format: in vivo, rat; details: single dose 1 μmol/kg body weight
Method: (§1) The efficacy of SnMP for controlling hyperbilirubinemia was also examined in a model of experimental postantal hyperbilirubinemia in the rat utilizing the heme precursor […] (ALA) to produce jaundice 7 days after birth (Drummond & Kappas, J. Clin. Invest., 74, 142-149, 1984). AlA (50 μmol/100g body weight) administered to suckling 7 day old neonates at 0,4 and 8 hours produced an approximately 3 fold increase in serum bilirubin levels 24 hours after the initial injection (FIG. 3). […] Heme oxygenase was assayed as earlier described (J. Biol. Chem., 253, 2321-2326, 1978).

heme oxygenase = molecular target: T1, heme oxygenase (Rattus norvegicus, UniProt P06762); experiment: rat spleen heme oxygenase incubation, in vitro inhibition; format: biochemical; details: for Km: normal Km 3.64 μM, read-out: Km for degradation of heme by heme oxygenase to bile pigment
T1 construct: rat spleen - heme oxygenase incubation mixtures; from tissue; host or cells: rat spleen
T1 sequence (P06762 1-289): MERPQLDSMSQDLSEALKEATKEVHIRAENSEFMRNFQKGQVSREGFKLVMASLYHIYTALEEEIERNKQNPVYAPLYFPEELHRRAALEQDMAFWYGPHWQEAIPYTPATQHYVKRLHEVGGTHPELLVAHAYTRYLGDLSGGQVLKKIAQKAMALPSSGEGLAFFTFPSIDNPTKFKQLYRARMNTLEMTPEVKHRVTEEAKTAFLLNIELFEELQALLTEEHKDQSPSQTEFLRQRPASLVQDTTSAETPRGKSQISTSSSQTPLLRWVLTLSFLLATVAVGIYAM

serum bilirubin [1] = experiment: serum bilirubin in newborn rats after a single subcutaneous injection at birth
[2] = tested on: liver tryptophan pyrrolase; experiment: liver tryptophan pyrrolase activity and heme saturation after parenteral administration to rats; format: in vivo, rat; details: 1 μmol/kg s.c.
Method: With adults afflicted with sickle cell anemia or another condition resulting in increased bilirubin concentration, the dosage unit is normally smaller since in all but the most acute situations, the bilirubin concentration is not as high as in neonates. The standard dosage with adults will normally be from about 2 to 5 mg/kg of body weight. […] In this study SnMP was administered subcutaneously at a dosage level of 1 μmol/kg of body weight to male Sprague-Dawley rats (180-200g). Control animals received an equivalent volume of aqueous isotonic saline. Tissue preparation of liver fractions for enzymic assays were conducted as described by Drummond and Kappas. Proc. Natl. Acad. Sci. USA. 78:6466-6470 (1981). Tryptophan pyrrolase activity was determined both in the absence (holoenzyme) and the presence (total enzyme) of added heme ([…]). The latter enzyme activity was calculated from the linear phase of kynurenine formation. The percent heme saturation for tryptophan pyrrolase was expressed as the ratio of holoenzyme to total enzyme (×100 ). Each data point in the figure represents the mean value of determinations in 3 to 6 animals.

[3] = biliary output of bilirubin, heme and iron in rats; format: in vivo, rat
Method: It has been observed that when heme is administered alone to animals such as rats, a large output of biliary bilirubin (mono- and diglucuronide forms) occurs, with a slight output of excess heme.
It is therefore clear that the administration of SnMP to mammals increases the biliary excretion of excess heme and thus of its contained iron atom as well. They make it clear also that the excess heme which accumulates when the rate of bilirubin production is decreased by the administration of SnMP is excreted in the bile and not stored in tissues. More particularly, they make it clear that the administration of SnMP to mammals suffering acute or chronic excess of heme or iron will increase the rate at which such heme or iron will be excreted into the intestinal contents.

serum bilirubin [4] = experiment: experimental postnatal hyperbilirubinemia produced by ALA in 7 day old rats, serum bilirubin; format: in vivo, rat; details: single dose 1 μmol/kg body weight at 0 time, 24 hours
Method: as §1

**Q.** What does the source list for tin mesoporphyrin [SnMP]?
**A.** effect on the increase in hepatic heme oxygenase activity associated with ALA administration (hepatic heme oxygenase): prevented the increase; inhibition of heme oxygenase activity (heme oxygenase; 0.025 and 0.05 μM SnMP): marked competitive inhibition; Km (heme oxygenase; SnMP 0.025 μM): 11.1 µM; Km (heme oxygenase; SnMP 0.05 μM): 18.2 µM; in vitro ability to inhibit the production of bilirubin relative to SnPP (heme oxygenase; compared with SnPP): just about as effective in this regard as SnPP; Ki (heme oxygenase; rat spleen heme oxygenase, read-out: inhibition constant Ki for the inhibition of the conversion of heme to bilirubin by heme oxygenase): 0.013 µM; effect on the increase in serum bilirubin 24 hours after birth (serum bilirubin [1]; 1 μmol/kg body weight s.c. once at birth): entirely prevented; effectiveness in vivo in lowering plasma bilirubin / suppressing neonatal jaundice relative to SnPP (serum bilirubin [1]; compared with SnPP): 5-10 times; percent heme saturation of tryptophan pyrrolase ([2]; male Sprague-Dawley rats, in two hours): approximately 80%; duration of the initial high tryptophan pyrrolase activity relative to SnPP ([2]; rats, compared with SnPP): maintained for a more extended period of time; output of biliary iron ([3]; bile duct cannulated rats): increase in output of biliary iron; biliary bilirubin output ([3]; rats, SnMP administered with heme): the bilirubin peak will decline; effect on the increase in serum bilirubin produced by ALA (serum bilirubin [4]): substantially diminished
